# Measured values taken from patent US20260232653A1, “USE OF CONDENSED AZACYCLE COMPOUNDS FOR THE TREATMENT OF LYSOSOMAL STORAGE DISORDERS” (Minerva Neurosciences, Inc., priority 2023, published 2026).
# Assays:
# NPC1 protein = experiment: Effect on NPC1 protein levels, Western blot densitometry in I1061T fibroblasts; type: cell-based; details: 0.3, 1 and 3 μM, 24 h, 48 h, 72 h, versus vehicle (FIGS. 1B-1D)
# Experimental: (§1) Healthy and I1061T fibroblasts (Coriell Institute Camden USA, cod. GM05659 (Healthy) and GM18453 (11061T)) were grown in air containing 5% CO2 in Dulbecco's Modified Eagle Medium (DMEM) medium, containing 10% v/v fetal calf serum, 2 mM L-glutamine, 0.1 mg/mL gentamicin, and 100 U/mL penicillin. Cells were passaged every 3 days.
# 1.5 mg of each of the compounds were weighed, dissolved in the proper solvent to reach a 3 mM concentration, kept at 4° C., and used within 15 days. The dilutions for the treatment were carried out in order to administer a 1:1000 volume. Specifically, 2 μL in 2 mL medium was administered. Ctr was made with DMSO.
# Cells were washed twice in phosphate buffer saline (PBS), harvested with 1% v/v trypsin, and pelleted by centrifugation. Pellets were re-suspended in PBS containing 0.1 M sucrose, 0.05 M KCl, 0.04 M KH2PO4, 30 mM EDTA, pH 7.4, and sonicated. The protein concentration was determined by the Lowry method.
# Samples were solubilized in 0.25 mM Tris-HCl, (pH 6.8) containing 20% (w/v) SDS, protease inhibitor cocktail (Merck #PIC0002), then boiled for 2 minutes. […]
# I1061T fibroblasts = experiment: LysoTracker cytofluorimetric analysis of lysosomal size; type: cell-based; details: after 48 hours, particularly at 0.3 μM (FIG. 3)
# Experimental: as §1
# Healthy and I1061T fibroblasts were cultured as in Example 1. To evaluate the effect of Compound No. 10 on lysosomal size, cells were treated with either 300 μM beta-cyclodextrin (CD), 2.5 μM Rim, 0.3 μM Compound No. 10 (CB), 1 μM Compound No. 10, 3 μM Compound No. 10, or vehicle control (ctr) for 72 hours. Following treatment, cytofluorimetric assays using Lysotracker™ (Life Technology #L7528) fluorescence as a tool was used and performed according to the manufacturer's instructions. LysoTracker™ provides fluorescence detection for live-cell staining of acidic environments and can be used for labeling and tracing acidic organelles such as lysosomes. Stained and unstained cells were analyzed by Cytofluorimeter CytoFLEX (Beckman Coulter). Data provided are the ratio of geometric (geo) mean of LysoTracker™ levels in stained divided by unstained samples, collected at 24 hours (FIG. 3, left), 48 hours (FIG. 3, middle), and 72 hours (FIG. 3, right).
# [1] = biological target: sigma 2/transmembrane protein 97 ("TMEM97") receptors (Homo sapiens, UniProt Q5BJF2); details: antagonist of the sigma receptor; known in the art; cited from earlier work
# Chain of sigma 2/transmembrane protein 97 ("TMEM97") receptors (Q5BJF2 whole entry, species assumed): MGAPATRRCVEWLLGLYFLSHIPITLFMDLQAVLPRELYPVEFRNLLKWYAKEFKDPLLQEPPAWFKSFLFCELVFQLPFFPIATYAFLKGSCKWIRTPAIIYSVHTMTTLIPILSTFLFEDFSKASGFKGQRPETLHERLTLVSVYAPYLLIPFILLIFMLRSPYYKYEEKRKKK
# [2] = system: mouse model of Niemann-Pick Disease, Type C; details: WO 2014/022841; cited from earlier work
smiles,measurement,setting,value
"CC1(C)CCN(C2CCCC2)Cc2cc(-c3ccc(C(F)(F)F)cc3)ccc21 [Compound No. 10, 2-cyclopentyl-5,5-dimethyl-8-(4-(trifluoromethyl)phenyl)-2,3,4,5-tetrahydro-1H-benzo[c]azepine]",effect on NPC1 protein expression,NPC1 protein,did not have a statistically significant effect
same,"fluorescence of the lysosomes (Lysotracker geo mean ratio), representing lysosomal size",I1061T fibroblasts,increase
"C[C@@H]1CN(CCCn2c3ccccc3c3ccccc32)C[C@H](C)N1 [Rimcazole, 9-[3-(3,5-cis-dimethylpiperazino)propyl]-carbazole]",IC50,[1],386 nM
OC[C@H]1O[C@@H]2O[C@H]3[C@H](O)[C@@H](O)[C@@H](O[C@H]4[C@H](O)[C@@H](O)[C@@H](O[C@H]5[C@H](O)[C@@H](O)[C@@H](O[C@H]6[C@H](O)[C@@H](O)[C@@H](O[C@H]7[C@H](O)[C@@H](O)[C@@H](O[C@H]8[C@H](O)[C@@H](O)[C@@H](O[C@H]1[C@H](O)[C@H]2O)O[C@@H]8CO)O[C@@H]7CO)O[C@@H]6CO)O[C@@H]5CO)O[C@@H]4CO)O[C@@H]3CO [beta-cyclodextrin],cholesterol accumulation,[2],reduced
same,neuronal cell loss,[2],reduced
